This note sets out measurements from patent US20250092039A1, “GLUTARIMIDE-CONTAINING PAN-KRAS-MUTANT DEGRADER COMPOUNDS AND USES THEREOF” (Tiger Biotherapeutics Inc., priority 2022, published 2025).

Test [1] concerns the target KRAS G12V (Homo sapiens (Human), UniProt P01116, G12V). Put plainly: KRAS G12V degradation in SW620 cells (Western blot, DC50). It is filed as cell-based. Conditions: 24 hours. Here is the method:
SW620 (KRAS G12V homozygous), AsPC1 (KRAS G12D homozygous), MIA PaCa2 (KRAS G12C homozygous), A549 (KRAS G12S homozygous) and MCF7 (KRAS WT) cells were obtained from American Type Culture Collection (ATCC). […] The following day, the test compound was administered to the cells by using 1000× compound stock solution prepared in DMSO at various concentrations. After administration of the compound, the cells were then incubated at 37° C. for 24 hours. Upon completion, the cells were washed with PBS and protein was collected in Laemmli sample buffer (1×; VWR International). Proteins in cell lysate were separated by SDS-PAGE and transferred to Odyssey nitrocellulose membranes (Licor) with iblot® dry blotting transfer system (ThermoFisher). Nonspecific binding was blocked by incubating membranes with Intercept Blocking Buffer (Licor) for 1 hour at room temperature with gentle shaking. […] After washing 3 times with TBS-T, the membranes were incubated with IRDye® 800CW goat anti-rabbit IgG (1:20,000, Licor) and IRDye® 680RD goat anti-mouse IgG (1:20,000, Licor) for 1 hour. After TBS-T washes, membranes were rinsed in TBS and Western blot images were acquired by Odyssey CLx (LI-COR Biosciences).
The signal intensity of target proteins was calculated using ImageStudio software. KRAS fluorescent intensity (FLU) from DMSO (vehicle) treatment was set as 100%. Relative KRAS expression level was determined by the following formula: […]
The percentage of KRAS expression was calculated using Microsoft Excel. The half-maximal degradation concentration (DCso) values were generated by GraphPad Prism (Version 9) using the dose-response equation of variable slope (four parameters).
(In general: A western blot detects proteins with antibodies after separation by electrophoresis.)

Test [2] deals with KRAS-G12V/RAF1 (Homo sapiens (Human), UniProt P01116, G12V). Put plainly: KRAS/RAF1 binding inhibition assay (AlphaScreen). Here is the method:
Binding affinity against GTP-bound KRAS of the compounds disclosed herein was measured by monitoring the interaction of guanosine 5′-[β,γ-imido]triphosphate-bound (GppNHp-bound) KRAS with the RBD domain of RAF1 in the presence of the test compound. […] The test compounds in 2% DMSO (final concentration) at various concentrations were then added to the reaction mixture and incubated for 60 minutes at 4° C.
Raw ALphaScreen data were converted to a percentage of inhibition (relative to DMSO) using the following equations: • a) For a given test compound concentration X: […]
The IC50 values were determined by nonlinear regression of plots of [inhibitor] vs. percentage of inhibition with variable slope, analyzed using GraphPad Prism (Version 9).
In general terms: In Alpha technology, singlet oxygen from a donor bead excites a nearby acceptor bead.

SMILES strings stand for the structures. A value given as a limit tells only on which side of the number the result lay.

Chain of KRAS G12V (P01116-2 other isoform, or with tags, fused parts or gaps G12V): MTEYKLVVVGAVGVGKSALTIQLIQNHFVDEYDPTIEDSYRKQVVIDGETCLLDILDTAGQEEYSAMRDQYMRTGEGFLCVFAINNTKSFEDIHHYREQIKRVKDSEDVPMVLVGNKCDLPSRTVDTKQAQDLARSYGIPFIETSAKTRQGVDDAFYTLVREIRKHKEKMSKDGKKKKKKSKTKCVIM
Chain of KRAS-G12V/RAF1 (P01116-2 other isoform, or with tags, fused parts or gaps G12V): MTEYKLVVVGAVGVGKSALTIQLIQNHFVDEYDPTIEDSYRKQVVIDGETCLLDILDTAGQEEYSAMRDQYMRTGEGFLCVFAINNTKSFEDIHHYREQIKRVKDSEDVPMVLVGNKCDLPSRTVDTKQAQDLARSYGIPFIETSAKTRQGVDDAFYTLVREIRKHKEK

Broadly, the DC50 is the concentration at which degradation of the target reaches its halfway point. Lower therefore signals degradation at low concentration. Broadly, the IC50 is the concentration that gives 50% inhibition. Low readings indicate higher potency, high ones lower potency. With `CCc1cccc2cc(O)cc(-c3ncc4c(N5C[C@@H]6C[C@H](C5)[C@H](O)C6)nc(OCC5(CN6CCC7(CC6)CC(CN6CCN(c8ccc9c(c8)CN([C@H]8CCC(=O)NC8=O)C9=O)CC6)C7)CC5)nc4c3F)c12` [Compound 101, (S)-3-(5-(4-((7-((1-(((7-(8-ethyl-3-hydroxynaphthalen-1-yl)-8-fluoro-4-((1R,5R,6R)-6-hydroxy-3-azabicyclo[3.2.1]octan-3-yl)pyrido[4,3-d]pyrimidin-2-yl)oxy)methyl)cyclopropyl)methyl)-7-azaspiro[3.5]nonan-2-yl)methyl)piperazin-1-yl)-1-oxoisoindolin-2-yl)piperidine-2,6-dione], in test [1], the half-maximal degradation concentration (DC50) is under 1 nM. For the same compound, the concentration for half-maximal inhibition (IC50) in test [2] was over 200 nM.

For `CCc1c(F)ccc2cc(O)cc(-c3ncc4c(N5CCCC(C)(F)C5)nc(OCC5(CN6CCC7(CC6)CC(CN6CCN(c8ccc9c(c8)CN([C@H]8CCC(=O)NC8=O)C9=O)CC6)C7)CC5)nc4c3F)c12` (stereo partly drawn) [Compound 132, (3S)-3-(5-(4-((7-((1-(((7-(8-ethyl-7-fluoro-3-hydroxynaphthalen-1-yl)-8-fluoro-4-(3-fluoro-3-methylpiperidin-1-yl)pyrido[4,3-d]pyrimidin-2-yl)oxy)methyl)cyclopropyl)methyl)-7-azaspiro[3.5]nonan-2-yl)methyl)piperazin-1-yl)-1-oxoisoindolin-2-yl)piperidine-2,6-dione], the DC50 in test [1] is over 100 nM. Moreover, the IC50 in test [2] is over 200 nM.

In test [1], `CCc1c(F)ccc2cc(O)cc(-c3ncc4c(N5CCCC6(CC(O)C6)C5)nc(OCC5(CN6CCC(CN7CCN(c8ccc9c(c8)CN([C@H]8CCC(=O)NC8=O)C9=O)CC7)CC6)CC5)nc4c3F)c12` (stereo partly drawn) [Compound 98, (S)-3-(5-(4-((1-((1-(((7-(8-ethyl-7-fluoro-3-hydroxynaphthalen-1-yl)-8-fluoro-4-(2-hydroxy-6-azaspiro[3.5]nonan-6-yl)pyrido[4,3-d]pyrimidin-2-yl)oxy)methyl)cyclopropyl)methyl)piperidin-4-yl)methyl)piperazin-1-yl)-1-oxoisoindolin-2-yl)piperidine-2,6-dione] had a DC50 of 1 to 10 nM. The compound further displayed an IC50 in test [2] of over 200 nM.

For `CCc1c(F)ccc2cc(O)cc(-c3ncc4c(N5CCC[C@]6(C5)C[C@@H](O)C6)nc(OCC5(CN6CCC7(CC6)CC(CN6CCN(c8ccc9c(c8)CN([C@H]8CCC(=O)NC8=O)C9=O)CC6)C7)CC5)nc4c3F)c12` [Compound 100, (S)-3-(5-(4-((7-((1-(((7-(8-ethyl-7-fluoro-3-hydroxynaphthalen-1-yl)-8-fluoro-4-((2r,4s)-2-hydroxy-6-azaspiro[3.5]nonan-6-yl)pyrido[4,3-d]pyrimidin-2-yl)oxy)methyl)cyclopropyl)methyl)-7-azaspiro[3.5]nonan-2-yl)methyl)piperazin-1-yl)-1-oxoisoindolin-2-yl)piperidine-2,6-dione], the half-maximal degradation concentration (DC50) in test [1] was over 100 nM. Also, the half-inhibitory concentration (IC50) in test [2] lay within 20 to 200 nM.

On to `CCc1cccc2cc(O)cc(-c3ncc4c(N5CCCn6nc(C(=O)N(C)C)c(Cl)c6C5)nc(OCC5(CN6CCC7(CC6)CC(CN6CCN(c8ccc9c(c8)CN([C@H]8CCC(=O)NC8=O)C9=O)CC6)C7)CC5)nc4c3F)c12` [Compound 102, (S)-3-chloro-5-(2-((1-((2-((4-(2-(2,6-dioxopiperidin-3-yl)-1-oxoisoindolin-5-yl)piperazin-1-yl)methyl)-7-azaspiro[3.5]nonan-7-yl)methyl)cyclopropyl)methoxy)-7-(8-ethyl-3-hydroxynaphthalen-1-yl)-8-fluoropyrido[4,3-d]pyrimidin-4-yl)-N,N-dimethyl-5,6,7,8-tetrahydro-4H-pyrazolo[1,5-a][1,4]diazepine-2-carboxamide], for which the DC50 in test [1] was under 1 nM. In addition, the 50% inhibitory concentration (IC50) in test [2] is over 200 nM.

With `C[C@@]1(O)CCCN(c2nc(OCC3(CN4CCC(CN5CCN(c6ccc7c(c6)CN([C@H]6CCC(=O)NC6=O)C7=O)CC5)CC4)CC3)nc3c(F)c(-c4cc(O)cc5ccc(F)c(F)c45)ncc23)C1` [Compound 111, (S)-3-(5-(4-((1-((1-(((7-(7,8-difluoro-3-hydroxynaphthalen-1-yl)-8-fluoro-4-((R)-3-hydroxy-3-methylpiperidin-1-yl)pyrido[4,3-d]pyrimidin-2-yl)oxy)methyl)cyclopropyl)methyl)piperidin-4-yl)methyl)piperazin-1-yl)-1-oxoisoindolin-2-yl)piperidine-2,6-dione], in test [1], the DC50 was 1 to 10 nM. The IC50 in test [2] lay within 20 to 200 nM.

`CCc1cccc2cc(O)cc(-c3ncc4c(N5CCOC[C@@](C)(O)C5)nc(OCC5(CN6CCC7(CC6)CC(CN6CCN(c8ccc9c(c8)CN([C@H]8CCC(=O)NC8=O)C9=O)CC6)C7)CC5)nc4c3F)c12` [Compound 106, (S)-3-(5-(4-((7-((1-(((7-(8-ethyl-3-hydroxynaphthalen-1-yl)-8-fluoro-4-((S)-6-hydroxy-6-methyl-1,4-oxazepan-4-yl)pyrido[4,3-d]pyrimidin-2-yl)oxy)methyl)cyclopropyl)methyl)-7-azaspiro[3.5]nonan-2-yl)methyl)piperazin-1-yl)-1-oxoisoindolin-2-yl)piperidine-2,6-dione] had a DC50 in test [1] of 1 to 10 nM. The compound further gave a half-maximal inhibitory concentration (IC50) in test [2] of 20 to 200 nM.

In turn, `CCc1c(F)ccc2cc(O)cc(-c3ncc4c(N5CCCn6nc(C(=O)N(C)C)c(Cl)c6C5)nc(OCC5(CN6CCC7(CC6)CC(CN6CCN(c8ccc9c(c8)CN([C@H]8CCC(=O)NC8=O)C9=O)CC6)C7)CC5)nc4c3F)c12` [Compound 94, (S)-3-chloro-5-(2-((1-((2-((4-(2-(2,6-dioxopiperidin-3-yl)-1-oxoisoindolin-5-yl)piperazin-1-yl)methyl)-7-azaspiro[3.5]nonan-7-yl)methyl)cyclopropyl)methoxy)-7-(8-ethyl-7-fluoro-3-hydroxynaphthalen-1-yl)-8-fluoropyrido[4,3-d]pyrimidin-4-yl)-N,N-dimethyl-5,6,7,8-tetrahydro-4H-pyrazolo[1,5-a][1,4]diazepine-2-carboxamide] yielded a DC50 in test [1] of 1 to 10 nM. Moreover, the IC50 in test [2] was over 200 nM.

In test [1], `CCc1c(F)ccc2cc(O)cc(-c3ncc4c(N5CCOC[C@](C)(O)C5)nc(OCC5(CN6CCC(CN7CCN(c8ccc9c(c8)CN([C@H]8CCC(=O)NC8=O)C9=O)CC7)CC6)CC5)nc4c3F)c12` [Compound 112, (S)-3-(5-(4-((1-((1-(((7-(8-ethyl-7-fluoro-3-hydroxynaphthalen-1-yl)-8-fluoro-4-((R)-6-hydroxy-6-methyl-1,4-oxazepan-4-yl)pyrido[4,3-d]pyrimidin-2-yl)oxy)methyl)cyclopropyl)methyl)piperidin-4-yl)methyl)piperazin-1-yl)-1-oxoisoindolin-2-yl)piperidine-2,6-dione] returned a half-maximal degradation concentration (DC50) of over 100 nM. In addition, in test [2], the IC50 was over 200 nM.

In test [1], `C[C@@]1(O)CCCN(c2nc(OCC3(CN4CCC5(CC4)CC(CN4CCN(c6ccc7c(c6)CN([C@H]6CCC(=O)NC6=O)C7=O)CC4)C5)CC3)nc3c(F)c(-c4cc(O)cc5ccc(F)c(F)c45)ncc23)C1` [Compound 103, (S)-3-(5-(4-((7-((1-(((7-(7,8-difluoro-3-hydroxynaphthalen-1-yl)-8-fluoro-4-((R)-3-hydroxy-3-methylpiperidin-1-yl)pyrido[4,3-d]pyrimidin-2-yl)oxy)methyl)cyclopropyl)methyl)-7-azaspiro[3.5]nonan-2-yl)methyl)piperazin-1-yl)-1-oxoisoindolin-2-yl)piperidine-2,6-dione] returned a half-maximal degradation concentration (DC50) of under 1 nM. This compound yielded a concentration for half-maximal inhibition (IC50) in test [2] of 20 to 200 nM.
